# Measured values published in US10668039B2, “Methods for treatment of adenoid cystic carcinoma” (THE CHILDREN'S MEDICAL CENTER CORPORATION, priority 2016, dated 2020).
# Tested on: ACC PDX models
# Assay: ATRA comparison TGI studies in ACC PDX models
# Assay type: in vivo
# Conditions: ATRA 8 mg/kg to 32 mg/kg; tamibarotene 2 mg/kg
# Description: The TGI studies in ACC PDX models were repeated in order to compare the original ATRA dose (3 or 4 mg/ml) against a more physiologically relevant dose of ATRA (8 mg/kg) and an alternative retinoid Tamibarotene (originally developed for ATRA-resistant cancer settings, approved in Japan and currently in development at Syros Pharmaceuticals).
compound,measurement,value
"CC1(C)CCC(C)(C)c2cc(NC(=O)c3ccc(C(=O)O)cc3)ccc21 [tamibarotene, 4-[(1,1,4,4-tetramethyltetralin-6-yl)carbamoyl]benzoic acid]",tumor growth inhibition in the PDX studies,showed tumor growth inhibition
